Data set [1] in a line: Inhibition of JAK1/STAT1/STAT3 signaling pathway in human LX2 cells assessed as decrease in TGF-beta induced STAT3 phosphorylation level at 1 uM incubated for 24 hrs by Western blot analysis. Type of data set: cell-based.
Data set [2] concerns LX-2. In words: Anti-hepatic fibrosis activity in human LX2 cells assessed as inhibition of TGF-beta1 induced MMP-2 mRNA expression at 3 micromol/L incubated for 24 hrs by qPCR analysis. The format is functional, cell-based. As to conditions: dose 3.0 µmol/L. (In qPCR the cycle at which signal appears reflects the starting amount.)
Data set [3] is described as follows: Anti-hepatic fibrosis activity in human LX2 cells assessed as inhibition of COL1A1 promoter activity at 25 micromol/L by luciferase reporter assay relative to control. Type of data set: functional. Particulars: LX-2, dose 25 µmol/L. For orientation: Reporter assays use an easily measured gene product as a stand-in for the process of interest.
The subject of data set [4] is LX-2. In words: Anti-hepatic fibrosis activity in human LX2 cells assessed as inhibition of TGF-beta1 induced intrinsic TGF-beta1 mRNA expression at 3 micromol/L incubated for 24 hrs by qPCR analysis. Type of data set: functional, cell-based. As to conditions: dose 3.0 µmol/L.
Data set [5] deals with LX-2. In words: Anti-hepatic fibrosis activity in human LX2 cells assessed as inhibition of TGFbeta1-induced alpha-SMA protein expression at 1 uM incubated for 24 hrs by western blot analysis. The format is functional, cell-based. A general note: Immunoblotting shows a protein as a band on a membrane.
Data set [6] is described as follows: Cytotoxicity against human LX2 cells assessed as mortality rate at 1 to 30 uM incubated for 24 hrs by Sulfonyl Rhodamine B assay. The format is toxicity, cell-based. As to conditions: lx-2, 24 h, dose 1-30 µM.
Data set [7] deals with AML12. The data set is described as follows: Cytotoxicity against mouse AML12 cells assessed as mortality rate at 1 to 30 uM incubated for 24 hrs by Sulfonyl Rhodamine B assay. The format is toxicity, cell-based. As to conditions: aml12, 24 h, dose 1-30 µM.
For data set [8], the system named is LX-2. In words: Anti-hepatic fibrosis activity in human LX2 cells assessed as inhibition of TGFbeta1-induced COL1A1 protein expression at 1 uM incubated for 24 hrs by western blot analysis. Type of data set: functional, cell-based.
The subject of data set [9] is LX-2. The data set is described as follows: Anti-hepatic fibrosis activity in human LX2 cells assessed as inhibition of TGFbeta1-induced FN protein expression at 1 uM incubated for 24 hrs by western blot analysis. The format is functional, cell-based.
Data set [10] deals with LX-2. The data set is described as follows: Anti-hepatic fibrosis activity in human LX2 cells assessed as inhibition of TGFbeta1-induced TIMP-1 protein expression at 1 uM incubated for 24 hrs by western blot analysis. The format is functional, cell-based.
A short description of data set [11]: Inhibition of JAK1/STAT1/STAT3 signaling pathway in human LX2 cells assessed as decrease in TGF-beta induced STAT1 phosphorylation level at 1 uM incubated for 24 hrs by Western blot analysis. Type of data set: cell-based.
The nature of data set [12]: Inhibition of JAK1/STAT1/STAT3 signaling pathway in human LX2 cells assessed as decrease in TGF-beta induced JAK1 phosphorylation level at 1 uM incubated for 24 hrs by Western blot analysis. Type of data set: cell-based.
Data set [13] relates to LX-2. In words: Anti-hepatic fibrosis activity in human LX2 cells assessed as inhibition of TGF-beta1 induced COL1A1 mRNA expression at 3 micromol/L incubated for 24 hrs by qPCR analysis. Particulars: dose 3.0 µmol/L. Type of data set: functional, cell-based.
Data set [14] relates to LX-2. In words: Anti-hepatic fibrosis activity in human LX2 cells assessed as inhibition of TGFbeta1-induced FN protein expression at 3 uM incubated for 24 hrs by western blot analysis. The format is functional, cell-based.
Data set [15] deals with LX-2. In words: Anti-hepatic fibrosis activity in human LX2 cells assessed as inhibition of TGFbeta1-induced TIMP-1 protein expression at 3 uM incubated for 24 hrs by western blot analysis. The format is functional, cell-based.
The test system of data set [16] is LX-2. The data set is described as follows: Anti-hepatic fibrosis activity in human LX2 cells assessed as inhibition of TGFbeta1-induced COL1A1 protein expression at 3 uM incubated for 24 hrs by western blot analysis. The format is functional, cell-based.
The test system of data set [17] is LX-2. In words: Anti-hepatic fibrosis activity in human LX2 cells assessed as inhibition of TGFbeta1-induced alpha-SMA protein expression at 3 uM incubated for 24 hrs by western blot analysis. The format is functional, cell-based.

Activity calls are given as the source filed them. The calls are words filed in the database; no cut-off is given here.

Turning to `O=C(Nc1ccccc1NS(=O)(=O)c1cccc(C(F)(F)F)c1)c1cc(Cl)c(Cl)c(Cl)c1`, the inhibition entry in data set [1], in [2], in data set [4], in data set [5], in data set [8] and in data set [9] was “Active” in each case. Moreover, the inhibition result in [10], in [11], in [12] and in data set [13] was “Active” in each case. Further, in data set [3], the inhibition – broadly, how much of the control response was suppressed – at 25 µM is 60.7%. Moreover, the Activity result in [6] and in data set [7] was “Non-Toxic” in each case.

Turning to `O=C(Nc1ccccc1NS(=O)(=O)c1cccc([N+](=O)[O-])c1)c1cc(Cl)c(Cl)c(Cl)c1`, the inhibition result in data set [1], in [14], in [2], in data set [15], in [4] and in [16] was “Active” each time. In addition, the inhibition result in [17], in [5], in data set [8], in data set [9], in data set [10] and in data set [11] was “Active” in each case. The inhibition result in data set [12] and in data set [13] was “Active” each time. The inhibition at 25 µM in [3] was 61.7%. Also, the Activity entry was “Toxic” in [6] and “Non-Toxic” in data set [7].

On to `O=C(Nc1ccccc1NS(=O)(=O)c1ccc([N+](=O)[O-])cc1)c1cc(Cl)c(Cl)c(Cl)c1`, for which the inhibition entry in data set [1], in [14], in [2], in [15], in [4] and in [16] was “Active” throughout. In addition, the inhibition entry in data set [17], in [5], in [8], in data set [9], in [10] and in data set [11] was “Active” each time. Moreover, the inhibition result in data set [12] and in data set [13] was “Active” each time. The inhibition at 25 µM in data set [3] was determined as 54.8%. Besides, the Activity result in data set [6] and in data set [7] was “Non-Toxic” each time.

The values are drawn from ChEMBL document CHEMBL5257100, “Discovery and development of benzene sulfonamide derivatives as anti-hepatic fibrosis agents” (Bioorg Med Chem Lett, 2023).
